# Measured values taken from patent publication US11578110B2, “Compounds for inducing tissue formation and uses thereof” (HISTIDE AG, priority 2015, dated 2023).
# Tests used:
# Hair Follicle Stem Cells = assay: Activation of hair follicle stem cells on modified hydrogels (Sox2, BMP-6 release); format: cell-based, Mouse; conditions: hydrogel 73 kPa covalently modified
# hMSCs = assay: STRO-1 stemness marker expression in hMSCs (immunostaining, ImageJ quantification); format: cell-based, Human; conditions: SEQ ID NO: 1 to 49 tested in combination with a bioactive carrier (titanium, ceramics, PEEK, hydrogel, etc.)
# Procedure, shortened: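 hMSCs exposed to GFR-binding peptides in solution or grafted on surfaces; cells fixed in 4% paraformaldehyde, permeabilized, stained with Stro-1 antibody (1 h, 37° C) plus Alexa Fluor secondary and DAPI. Stro-1 positive contact number and area quantified by thresholded image analysis, at least 30 cells per condition.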
# Neurons = assay: Neuron growth on modified titanium (dendrite growth, GAP43 Q-PCR); format: cell-based; conditions: covalently modified titanium
# Procedure: Total RNA was extracted by using the RNeasy total RNA kit (Qiagen®) according to the manufacturer's instructions. Purified total RNA was used as a template in order to make cDNA by a reverse transcription reaction (Gibco Brl®) with random primers (Invitrogen®). The cDNA was then used as a template for a real-time PCR amplification in the presence of SYBR green reagents (Bio-Rad®) by using a thermocycler (iCycler, Biorad®). Data were analyzed with the iCycler IQ™® software and compared by the ΔΔCt method. Briefly, the mean Ct value of the target gene was normalized to its averaged Ct values of the housekeeping gene (HPRT) to give a ΔCt value, which was then normalized to a control sample to obtain a ΔΔCt value.
# Neurons were cultured on native titanium (control) and on titanium covalently modified with neurogenic peptides (SEQ ID NO: 49). […] To further confirm this the expression of the Growth Associated Protein 43 (GAP43) gene was verified for neuron cells cultured on materials covalently modified with neurogenic peptides (SEQ ID NO: 49).
# [1] = Stability of non-covalent peptide coating on apatite ceramics / type-I collagen (fluorescent peptides); format: physicochemical; conditions: non-covalent coating on apatite ceramics (SEQ ID NO: 23) or type-I collagen sponge (SEQ ID NO: 22); 3, 7 or 10 days
# Procedure: Non-covalent modifications of the materials were performed in Air Atmosphere at room temperature. The non-covalent coating strategy consisted in using a mixture of inducing peptide (SEQ ID NO: 23; concentration of 1×10^−3M) with an apatite ceramics implant or a mixture of inducing peptide (SEQ ID NO: 22; concentration of 1×10^−3M) with a type-I collagen sponge. The non-covalently coated conventional materials were characterized by using fluorescent peptides (Here SEQ ID NO: 22 and 23 covalently bound to fluorescein isothiocyanate (FITC), FIG. 6). The results shown here in FIG. 6 were obtained from experiments performed with apatite ceramics and a type-I collagen sponge. […] Indeed, after 3, 7 or 10 days, the osteogenic peptides were still coupled to the ceramics or the type-I collagen (FIGS. 7a and b).
# [2] = system: Human umbilical-vein endothelial cells; assay: Angiogenesis: tube-like structure formation of HUVECs on modified PET; format: cell-based; conditions: 18 hours, covalently modified PET
# [3] = system: Human umbilical-vein endothelial cells; assay: Endothelialization: adherent junctions (CD31) of HUVECs on modified PET; format: cell-based; conditions: 36 hours, covalently modified PET
# Procedure: An increase in the area of the adherent junctions (CD31) was observed after 36 hours of culture on the covalently modified PET (FIG. 13).
# [4] = system: Human Mesenchymal Stem Cells (hMSCs); assay: Osteogenic differentiation of human mesenchymal stem cells (Runx2, Osterix immunostaining, ALP activity); format: cell-based; conditions: 1 week, type-I collagen sponge coupled with peptide
# [5] = system: mouse mesenchymal pre-osteoblastic cells (MC3T3-E1); assay: Osteogenic differentiation of osteoblast progenitors (extracellular matrix, Osteopontin, Runx2 Q-PCR); format: cell-based; conditions: 48 hours
# Procedure: The surface profiler system is a non-contact optical profiler that measures a wide range of surface heights. The vertical scanning interferometry mode allows for the measurement of rough surfaces and steps of up to several micrometers. This mode was used in order to measure the thickness of the extracellular matrix produced by the cells. First, after 24 h of culture, the cells were fixed with paraformaldehyde in PBS (4%) for 30 minutes at 4° C. and the samples were dehydrated in increasing concentrations of ethanol (30, 70, 80, 90, 95 and 100%) and critical-point dried. To evaluate the extent of the newly synthesized extracellular matrix, a spatula was used to scratch the surface of the materials. The samples were then metallized for 10 sec with gold or titanium before being analyzed.
# Total RNA was extracted by using the RNeasy total RNA kit (Qiagen®) according to the manufacturer's instructions. Purified total RNA was used as a template in order to make cDNA by a reverse transcription reaction (Gibco Brl®) with random primers (Invitrogen®). […] Data were analyzed with the iCycler IQ™® software and compared by the ΔΔCt method. […]
# The effect of these GFR-binding compounds as defined herein (SEQ ID NO: 33) on the differentiation of osteoblast progenitors was evaluated. […]
sequence,measurement,setting,value
AASKASSVPEKLSSLSILFF [SEQ ID NO: 41],BMP-6 release in the cell culture medium,Hair Follicle Stem Cells,decrease
same,Sox2 protein expression,Hair Follicle Stem Cells,increase
same,STRO-1 expression,hMSCs,28%
GIPEPSSVPAKMSPISILYI [SEQ ID NO: 49],cell-cell contacts via dendrite growth,Neurons; 6 hours,rapid establishment
same,GAP43 gene expression,"Neurons; 48 hours, Q-PCR",high level of expression
same,STRO-1 expression,hMSCs,19%
GSAGPSSVPEKMSSLSILFF [SEQ ID NO: 42],BMP-6 release in the cell culture medium,Hair Follicle Stem Cells,decrease
same,Sox2 protein expression,Hair Follicle Stem Cells,increase
same,STRO-1 expression,hMSCs,26%
GTPGPHVTKPTSVPTKLSAISMLYL (GTPGPHVTKPTXVPTKLSAISMLYL; GFR-binding peptide; MOD_RES (12)..(12): Xaa is C or S) [SEQ ID NO: 23],release of peptides over time,[1],no significant release
same,STRO-1 expression,hMSCs,28%
KVGKASSVPTKLSNITMQIM [SEQ ID NO: 39],formation of tube-like structures,[2],observed
same,STRO-1 expression,hMSCs,32%
STPPTSSSRVRLRSVKVAKV [SEQ ID NO: 38],area of the adherent junctions (CD31),[3],increase
same,STRO-1 expression,hMSCs,34%
WWFWGAAPASSSVPTRLSPISVLYK (WWFWGAAPASXXVPTRLSPISVLYK; GFR-binding peptide; MOD_RES (11)..(12): Xaa is C or S) [SEQ ID NO: 32],ALP activity,[4],increase
same,STRO-1 expression,hMSCs,27%
WWFWGKASKASSVPTKLSAISMLYL (WWFWGKASKAXXVPTKLSAISMLYL; GFR-binding peptide; MOD_RES (11)..(12): Xaa is C or S) [SEQ ID NO: 33],differentiation of osteoblast progenitors,[5]; apatite ceramics or type-I collagen sponge coupled with peptide,differentiated into mature osteoblasts
same,production of extracellular matrix proteins such as Osteopontin (OPN),"[5]; vs native type-I collagen sponge, immunofluorescence",extensive amounts
same,STRO-1 expression,hMSCs,26%
WWFWGSAGPSSTPTKMSAISMLYL (WWFWGSAGPXXTPTKMSAISMLYL; GFR-binding peptide; MOD_RES (10)..(11): Xaa is C or S) [SEQ ID NO: 22],release of peptides over time,[1],no significant release
same,STRO-1 expression,hMSCs,29%
